From patent US20260053861A1, “CELL COMPOSITIONS AND METHODS OF USING THE SAME” (THE REGENTS OF THE UNIVERSITY OF CALIFORNIA, priority 2022, published 2026)
Where a name gives a salt, the structure may show the parent alone.

The compounds below were run on hPSC-SCs. Conditions: not given.
Compound `CN1[C@@H](C[C@@H](O)c2ccccc2)CCC[C@H]1C[C@H](O)c1ccccc1.Cl` [Lobelanidine hydrochloride] has a z.score.t of −0.3319. `CN1[C@@H](CC(=O)c2ccccc2)CCC[C@H]1C[C@H](O)c1ccccc1.Cl` [Lobeline alpha (−) hydrochoride] gave a z.score.t of −0.2904. `CN(C)C(=O)C(CCN1CCC(O)(c2ccc(Cl)cc2)CC1)(c1ccccc1)c1ccccc1` [Loperamide hydrochloride] was tested, and the z.score.t was −1.329. In the case of `COC1=C[C@@H]2C3=C([C@@H]2C1=O)[C@@H](NC(C)=O)CCc1cc(OC)c(OC)c(OC)c13` [Lumicolchicine gamma], the z.score.t is reported as 1.528. `CN1C[C@H](CO)C=C2c3cccc4[nH]cc(c34)C[C@H]21` [Lysergol] gave a z.score.t of 0.1979. With `CN(C)CCOC(=O)COc1ccc(Cl)cc1` [Meclofenoxate hydrochloride] the z.score.t was −2.264. `CCC1(c2cccc(O)c2)CCCCN(C)C1` (stereo not drawn) [Meptazinol hydrochloride] gave a z.score.t of 0.01078. `COC(=O)Nc1nc2ccc(SC(C)C)cc2[nH]1` [Methiazole] was tested, and the z.score.t was −1.263. `COc1ccc2[nH]c3c(c2c1)CCN=C3C` [Methoxy-6-harmalan] gave a z.score.t of −0.1216. `Cc1cc(C(C)(C)CC(C)(C)C)ccc1OCCOCC[N+](C)(C)Cc1ccccc1.[Cl-]` [Methyl benzethonium chloride] gave a z.score.t of −1.169. For `CC[C@@H](CO)NC(=O)[C@@H]1C=C2c3cccc4[nH]cc(c34)C[C@H]2N(C)C1` [Methylergometrine maleate], the z.score.t was 1.669. `C[C@H]1NC(=O)NC1=O` [Methylhydantoin-5-(D)] gave a z.score.t of −0.9395. For `C[C@@H]1NC(=O)NC1=O` [Methylhydantoin-5-(L)], the z.score.t was 1.101.

Same assay, conditions: HTS viability of hPSC-SCs in the presence of 30 mM glucose; Prestwick library; Table S4
For `Cc1cccc(C)c1NC(=O)CN1CCN(CCCC(c2ccc(F)cc2)c2ccc(F)cc2)CC1` [Lidoflazine], the z.score.t was −1.03. In the case of `CCC[C@@H]1C[C@@H](C(=O)N[C@@H]([C@H]2O[C@H](SC)[C@H](O)[C@@H](O)[C@H]2O)[C@@H](C)O)N(C)C1` [Lincomycin hydrochloride], the z.score.t is reported as 0.1446. `N[C@@H](Cc1cc(I)c(Oc2ccc(O)c(I)c2)c(I)c1)C(=O)O` [Liothyronine] gave a z.score.t of −1.539. For `NCCCC[C@H](N[C@@H](CCc1ccccc1)C(=O)O)C(=O)N1CCC[C@H]1C(=O)O` [Lisinopril], the z.score.t was 0.08508. Work on `C[C@H](CCC(=O)O)[C@H]1CC[C@H]2[C@@H]3CC[C@@H]4C[C@H](O)CC[C@]4(C)[C@H]3CC[C@]12C` [Lithocholic acid] yielded a z.score.t of −0.7945. `CCn1cc(C(=O)O)c(=O)c2cc(F)c(N3CCNC(C)C3)c(F)c21` (stereo not drawn) [Lomefloxacin hydrochloride] gave a z.score.t of −0.9109. In the case of `CCCCCN(CCCCC)C(=O)C(CCC(=O)O)NC(=O)c1ccc(Cl)c(Cl)c1` (stereo not drawn) [Lorglumide sodium salt], the z.score.t is reported as 1.824. `CC[C@H](C)C(=O)O[C@H]1C[C@@H](C)C=C2C=C[C@H](C)[C@H](CC[C@@H]3C[C@@H](O)CC(=O)O3)[C@H]21` [Lovastatin] was tested, and the z.score.t was −0.865. For `CN1CCN(C2=Nc3ccccc3Oc3ccc(Cl)cc32)CC1` [Loxapine succinate], the z.score.t was −0.2278. With `O=c1cc(-c2ccc(O)c(O)c2)oc2cc(O)cc(O)c12` [Luteolin] the z.score.t was −0.7945. With `CN(C)[C@@H]1C(O)=C(C(=O)NCNCCCC[C@H](N)C(=O)O)C(=O)[C@@]2(O)C(O)=C3C(=O)c4c(O)cccc4[C@@](C)(O)[C@H]3C[C@@H]12` [Lymecycline] the z.score.t was −0.5745. In the case of `C#C[C@]1(O)CC[C@H]2[C@@H]3CCC4=CCCC[C@@H]4[C@H]3CC[C@@]21C` [Lynestrenol], the z.score.t is reported as −1.847. For `NCc1ccc(S(N)(=O)=O)cc1` [Mafenide hydrochloride], the z.score.t was −0.4019. `CNCCCC12CCC(c3ccccc31)c1ccccc12` [Maprotiline hydrochloride] showed a z.score.t of −0.865. In the case of `COC(=O)Nc1nc2ccc(C(=O)c3ccccc3)cc2[nH]1` [Mebendazole], the z.score.t is reported as −1.584. With `CCN(CCCCOC(=O)c1ccc(OC)c(OC)c1)C(C)Cc1ccc(OC)cc1` (stereo not drawn) [Mebeverine hydrochloride] the z.score.t was −0.3301. `CN1CCc2c(c3ccccc3n2Cc2ccccc2)C1.O=S(=O)(O)c1cccc2c(S(=O)(=O)O)cccc12` [Mebhydroline 1,5-naphtalenedisulfonate] gave a z.score.t of 0.7312. Compound `CNC1(C)C2CCC(C2)C1(C)C` (stereo not drawn) [Mecamylamine hydrochloride] has a z.score.t of 0.3097. In the case of `C=C1c2c(Cl)ccc(O)c2C(=O)C2=C(O)[C@]3(O)C(=O)C(C(N)=O)=C(O)[C@@H](N(C)C)[C@@H]3[C@@H](O)[C@H]12.O=C(O)c1cc(S(=O)(=O)O)ccc1O` [Meclocycline sulfosalicylate], the z.score.t is reported as 1.049. With `Cc1cccc(CN2CCN(C(c3ccccc3)c3ccc(Cl)cc3)CC2)c1` (stereo not drawn) [Meclozine dihydrochloride] the z.score.t was −1.823. For `CC(=O)[C@H]1CC[C@H]2[C@@H]3C[C@H](C)C4=CC(=O)CC[C@]4(C)[C@H]3[C@@H](O)C[C@]12C` [Medrysone], the z.score.t was 0.1244. `Cc1cccc(Nc2ccccc2C(=O)O)c1C` [Mefenamic acid] gave a z.score.t of 1.751. For `CCN(CC)CCNC(=O)COc1ccc(OC)cc1` [Mefexamide hydrochloride], the z.score.t was 0.189. `OC(c1cc(C(F)(F)F)nc2c(C(F)(F)F)cccc12)C1CCCCN1` (stereo not drawn) [Mefloquine hydrochloride] was tested, and the z.score.t was −1.637. In the case of `CNC[C@H](O)[C@@H](O)[C@H](O)[C@H](O)CO` [Meglumine], the z.score.t is reported as −0.9741. `COc1ccc2[nH]cc(CCNC(C)=O)c2c1` [Melatonin] showed a z.score.t of 0.006455. For `Cc1cnc(NC(=O)C2=C(O)c3ccccc3S(=O)(=O)N2C)s1` [Meloxicam], the z.score.t was 1.481. Compound `CC12CC3CC(C)(C1)CC(N)(C3)C2` [Memantine Hydrochloride] has a z.score.t of −0.9598. `CC1=CC(=O)c2ccccc2C1=O` [Menadione] gave a z.score.t of −1.949. With `C[N+]1(C)CCCC(OC(=O)C(O)(c2ccccc2)c2ccccc2)C1` (stereo not drawn) [Mepenzolate bromide] the z.score.t was 0.03421. In the case of `Cc1ccccc1OCC(O)CO` (stereo not drawn) [Mephenesin], the z.score.t is reported as −1.753. For `CCC1(c2ccccc2)NC(=O)N(C)C1=O` (stereo not drawn) [Mephenytoin], the z.score.t was −0.9817. `CCCNC(C)(C)COC(=O)c1ccccc1` [Meprylcaine hydrochloride] was tested, and the z.score.t was −0.4953. `Nc1ccc(O)c(C(=O)O)c1` [Mesalamine] was tested, and the z.score.t was −0.5745. In the case of `CN1CCCCC1CCN1c2ccccc2Sc2ccc([S+](C)[O-])cc21` (stereo not drawn) [Mesoridazine besylate], the z.score.t is reported as 0.2816. With `C=N[C@@H](C(=O)N[C@@H]1C(=O)N2[C@@H]1SC(C)(C)[C@@H]2C(=O)O)c1ccccc1` [Metampicillin sodium salt] the z.score.t was −1.069. For `CNCC(O)c1ccc(O)c(OC)c1.Cl` (stereo not drawn) [Metanephrine hydrochloride DL], the z.score.t was 1.259. With `C[C@H](N)[C@H](O)c1cccc(O)c1` [Metaraminol bitartrate] the z.score.t was 1.088. `CN1C[C@H](CNC(=O)OCc2ccccc2)C[C@@H]2c3cccc4c3c(cn4C)C[C@H]21` [Metergoline] gave a z.score.t of 1.211. With `CN(C)C(=N)N=C(N)N` [Metformin hydrochloride] the z.score.t was 0.8639. With `CC(=O)OC(C)C[N+](C)(C)C` (stereo not drawn) [Methacholine chloride] the z.score.t was 1.554. In the case of `C=C1c2cccc(O)c2C(=O)C2=C(O)[C@]3(O)C(=O)C(C(N)=O)=C(O)[C@@H](N(C)C)[C@@H]3[C@@H](O)[C@H]12` [Methacycline hydrochloride], the z.score.t is reported as −0.4684. Work on `CC[N+](C)(CC)CCOC(=O)C1c2ccccc2Oc2ccccc21` [Methantheline bromide] yielded a z.score.t of −0.3173. Compound `CN(C)CCN(Cc1cccs1)c1ccccn1` [Methapyrilene hydrochloride] has a z.score.t of 0.1344. With `CC(=O)/N=c1/sc(S(N)(=O)=O)nn1C` [Methazolamide] the z.score.t was −0.3678. Compound `Cn1cc[nH]c1=S` [Methimazole] has a z.score.t of −0.05622. `CS(=N)(=O)CC[C@H](N)C(=O)O` (stereo partly drawn) [Methionine sulfoximine (L)] gave a z.score.t of 1.124. `CSc1ccc2c(c1)C(N1CCN(C)CC1)Cc1ccccc1S2.O=C(O)/C=C\C(=O)O` (stereo not drawn) [Methiothepin maleate] showed a z.score.t of −0.8821. `COc1ccccc1OCC(O)COC(N)=O` (stereo not drawn) [Methocarbamol] gave a z.score.t of −1.392. `CN(Cc1cnc2nc(N)nc(N)c2n1)c1ccc(C(=O)N[C@@H](CCC(=O)O)C(=O)O)cc1` [Methotrexate] gave a z.score.t of 0.8875. `COc1ccc2c(c1)N(C[C@H](C)CN(C)C)c1ccccc1S2.O=C(O)/C=C\C(=O)O` [Methotrimeprazine maleat salt] showed a z.score.t of −1.008. `COc1ccc(OC)c(C(O)C(C)N)c1` (stereo not drawn) [Methoxamine hydrochloride] showed a z.score.t of 1.064. `COc1c2occc2cc2ccc(=O)oc12` [Methoxy-8-psoralen] showed a z.score.t of 1.124. `C[N+]1(C)[C@@H]2CC[C@H]1C[C@@H](OC(=O)C(CO)c1ccccc1)C2` (stereo partly drawn) [Methylatropine nitrate] showed a z.score.t of 1.238. `C[C@](N)(Cc1ccc(O)c(O)c1)C(=O)O` [Methyldopa (L, −)] was tested, and the z.score.t was 0.006455. `CCOC(=O)[C@@](C)(N)Cc1ccc(O)c(O)c1` [Methyldopate hydrochloride] showed a z.score.t of −0.8464. With `C[C@H]1C[C@@H]2[C@H]([C@@H](O)C[C@@]3(C)[C@H]2CC[C@]3(O)C(=O)CO)[C@@]2(C)C=CC(=O)C=C12` [Methylprednisolone, 6-alpha] the z.score.t was 0.7665. Compound `Cc1cc2c(cc1S(N)(=O)=O)S(=O)(=O)CCC2` [Meticrane] has a z.score.t of −0.3156. `CN1CCCC(CC2c3ccccc3Sc3ccccc32)C1` (stereo not drawn) [Metixene hydrochloride] gave a z.score.t of −0.9654. Compound `CCN(CC)CCNC(=O)c1cc(Cl)c(N)cc1OC` [Metoclopramide monohydrochloride] has a z.score.t of 1.024. Work on `Cc1ccccc1N1C(=O)c2cc(S(N)(=O)=O)c(Cl)cc2NC1C` (stereo not drawn) [Metolazone] yielded a z.score.t of 0.3637. Work on `CC(=O)Nc1c(I)c(C(=O)N[C@H]2C(O)O[C@H](CO)[C@@H](O)[C@@H]2O)c(I)c(N(C)C(C)=O)c1I` (stereo partly drawn) [Metrizamide] yielded a z.score.t of 1.421. With `Cc1ncc([N+](=O)[O-])n1CCO` [Metronidazole] the z.score.t was 1.259. `CC(C)(C(=O)c1cccnc1)c1cccnc1` [Metyrapone] was tested, and the z.score.t was 1.178. Compound `C[C@@]1(O)CCOC(=O)C1` [Mevalonic-D, L acid lactone] has a z.score.t of 0.2361.
